Results on ten compounds are retold here after patent US9296704B2, “Substituted pyrimidines as protein kinase inhibitors” (CELGENE AVILOMICS RESEARCH, INC., priority 2007, dated 2016).

The target of experiment [1] is BTK (Homo sapiens, UniProt Q06187). As to the kind of experiment: Omnia assay for potency against BTK. The format is biochemical. The conditions noted are these: read-out: BTK Inhibition. Put shortly: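 BTK (5 nM) was pre-incubated 30 min at 27° C with serially diluted compounds in Tris pH 7.5/MgCl2 buffer, then started with […] and Y5-Sox peptide 10 mM (ATP KMapp ~36 mM). Fluorescence (ex360/em485) was read continuously over 60 min. IC50 came from initial velocities using a variable-slope fit.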

The target of experiment [2] is T1, EGFR (T790M/L858R) (Homo sapiens, UniProt P00533, L858R/T790M).
T1 construct: purchased BPS Bioscience 40350
As to the kind of experiment: Omnia continuous-read kinase assay, EGFR (T790M/L858R). Particulars: read-out: EGFR (T790M/L858R) inhibiton. In kind it is biochemical. The gist of the method: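 Enzyme pre-incubated 30 min at 27 °C with compound, then ATP/Y12-Sox peptide added; fluorescence (ex360/em485) read continuously 60 min in 20 mM Tris pH 7.5, 5 mM MgCl2, 0.2 mM DTT. WT: 5 nM enzyme, […]; T790M/L858R: 3 nM enzyme, […]. IC50 from initial velocities, variable-slope fit.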

For experiment [3], the system named is BTK signaling in Ramos cells. Put plainly: BTK Ramos cellular assay (PLCγ2 phosphorylation). In kind it is cell-based. The conditions noted are these: Homo sapiens; for IC50: Ramos cells, PLCγ2 phosphorylation, read-out: BTK Inhibition.
Experiment [4] concerns the target T2, ITK (Homo sapiens, UniProt Q08881).
T2 sequence (Q08881 1-620): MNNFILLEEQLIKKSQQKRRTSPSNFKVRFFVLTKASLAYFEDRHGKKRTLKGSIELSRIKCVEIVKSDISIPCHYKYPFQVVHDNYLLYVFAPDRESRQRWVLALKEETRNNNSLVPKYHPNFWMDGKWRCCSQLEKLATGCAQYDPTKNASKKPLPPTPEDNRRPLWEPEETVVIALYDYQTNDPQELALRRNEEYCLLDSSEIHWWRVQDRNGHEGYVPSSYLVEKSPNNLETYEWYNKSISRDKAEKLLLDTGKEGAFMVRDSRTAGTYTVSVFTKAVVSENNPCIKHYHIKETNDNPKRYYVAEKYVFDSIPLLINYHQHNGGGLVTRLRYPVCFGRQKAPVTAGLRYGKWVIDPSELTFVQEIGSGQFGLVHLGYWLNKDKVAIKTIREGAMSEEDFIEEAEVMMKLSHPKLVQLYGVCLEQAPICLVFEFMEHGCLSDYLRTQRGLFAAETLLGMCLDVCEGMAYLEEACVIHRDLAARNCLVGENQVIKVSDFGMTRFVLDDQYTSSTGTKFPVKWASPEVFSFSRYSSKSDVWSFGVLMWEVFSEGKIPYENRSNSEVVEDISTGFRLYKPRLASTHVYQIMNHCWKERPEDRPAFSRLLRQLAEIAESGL
As to the kind of experiment: Omnia assay for potency against ITK. In kind it is biochemical. Particulars: read-out: ITK inhibition. The text has this: The protocol below describes continuous-read kinase assays to measure inherent potency of compounds against active forms of EGFR (WT) and EGFR (T790M/L858R) enzymes. The mechanics of the assay platform are best described by the vendor (Invitrogen, Carlsbad, Calif.) on their website at the following URL: http://www.invitrogen.com/content.cfm?pageid=11338 or http://www.invitrogen.com/site/us/en/home/Products-and-Services/Applications/Drug-Discovery/Target-and-Lead-Identification-and-Validation/KinaseBiology/KB-Misc/Biochemical-Assays/Omnia-Kinase-Assays.html.
Briefly, 10× stocks of EGFR-WT (PV3872) from Invitrogen and EGFR-T790M/L858R (40350) from BPS Bioscience, San Diego, Calif., 1.13×ATP (AS001A) and appropriate Tyr-Sox conjugated peptide substrates (KCZI001) were prepared in 1× kinase reaction buffer consisting of 20 mM Tris, pH 7.5, 5 mM MgCl2, 1 mM EGTA, 5 mM β-glycerophosphate, 5% glycerol (10× stock, KB002A) and 0.2 mM DTT (DS001A). 5 μL of each enzyme were pre-incubated in a Corning (#3574) 384-well, white, non-binding surface microtiter plate (Corning, NY) for 30 min. at 27° C. with a 0.5 μL volume of 50% DMSO and serially diluted compounds prepared in 50% DMSO. Kinase reactions were started with the addition of 45 μL of the ATP/Tyr-Sox peptide substrate mix and monitored every 30-90 seconds for 60 minutes at λex360/λem485 in a Synergy^4 plate reader from BioTek (Winooski, Vt.). At the conclusion of each assay, progress curves from each well were examined for linear reaction kinetics and fit statistics (R^2, 95% confidence interval, absolute sum of squares). Initial velocity (0 minutes to ˜30 minutes) from each reaction was determined from the slope of a plot of relative fluorescence units vs time (minutes) and then plotted against inhibitor concentration to estimate IC50 from log [Inhibitor] vs Response, Variable Slope model in GraphPad Prism from GraphPad Software (San Diego, Calif.).
This example describes continuous-read kinase assays to measure inherent potency of compound against active forms of ITK enzymes as described in Example 10 above except that the modified ITK-optimized reagent conditions are: • [ITK]=10 nM, [ATP]=25 μM, [Y6-Sox]=10 μM (ATP KMapp=33 μM).

Experiment [5] has as its system BTK in Ramos cells. As to the kind of experiment: Washout experiment with Ramos cells for BTK activity. In kind it is cell-based, human. The conditions noted are these: for BTK Inhibition Type: Ramos washout assay, 100 nM compound for 1 hour. As to the method: Ramos cells were serum starved for one hour in RPMI media+1% glutamine at 37° C. After starvation, Ramos cells were treated with 100 nM compound diluted in serum free RPMI media for 1 hour. After compound treatment, the media was removed and cells were washed with compound-free media. Subsequently, Ramos cells were washed every 2 hours and resuspended in fresh compound-free media. Cells were collected at specified timepoints, treated with 1 ug anti-human IgM (Southern Biotech cat #2022-01) for 10 minutes on ice to induce BCR signaling and then washed in PBS. Ramos cells were then lysed in Cell Extraction Buffer (Invitrogen FNN0011) supplemented with Roche complete protease inhibitor tablets (Roche 11697498001) and phosphatase inhibitors (Roche 04 906 837 001) and 18 ug total protein lysate was loaded in each lane. Inhibition of BTK kinase activity was assayed by measuring its substrate (PLCγ2) phosphorylation by western blot with phospho-specific antibodies from Cell Signaling Technologies cat#3871. FIG. 10 depicts the results of compound I-13 in the washout experiment at 0 hour, 4 hour, 6 hour, and 8 hour time points.

T1 sequence (P00533 25-1210 T790M/L858R): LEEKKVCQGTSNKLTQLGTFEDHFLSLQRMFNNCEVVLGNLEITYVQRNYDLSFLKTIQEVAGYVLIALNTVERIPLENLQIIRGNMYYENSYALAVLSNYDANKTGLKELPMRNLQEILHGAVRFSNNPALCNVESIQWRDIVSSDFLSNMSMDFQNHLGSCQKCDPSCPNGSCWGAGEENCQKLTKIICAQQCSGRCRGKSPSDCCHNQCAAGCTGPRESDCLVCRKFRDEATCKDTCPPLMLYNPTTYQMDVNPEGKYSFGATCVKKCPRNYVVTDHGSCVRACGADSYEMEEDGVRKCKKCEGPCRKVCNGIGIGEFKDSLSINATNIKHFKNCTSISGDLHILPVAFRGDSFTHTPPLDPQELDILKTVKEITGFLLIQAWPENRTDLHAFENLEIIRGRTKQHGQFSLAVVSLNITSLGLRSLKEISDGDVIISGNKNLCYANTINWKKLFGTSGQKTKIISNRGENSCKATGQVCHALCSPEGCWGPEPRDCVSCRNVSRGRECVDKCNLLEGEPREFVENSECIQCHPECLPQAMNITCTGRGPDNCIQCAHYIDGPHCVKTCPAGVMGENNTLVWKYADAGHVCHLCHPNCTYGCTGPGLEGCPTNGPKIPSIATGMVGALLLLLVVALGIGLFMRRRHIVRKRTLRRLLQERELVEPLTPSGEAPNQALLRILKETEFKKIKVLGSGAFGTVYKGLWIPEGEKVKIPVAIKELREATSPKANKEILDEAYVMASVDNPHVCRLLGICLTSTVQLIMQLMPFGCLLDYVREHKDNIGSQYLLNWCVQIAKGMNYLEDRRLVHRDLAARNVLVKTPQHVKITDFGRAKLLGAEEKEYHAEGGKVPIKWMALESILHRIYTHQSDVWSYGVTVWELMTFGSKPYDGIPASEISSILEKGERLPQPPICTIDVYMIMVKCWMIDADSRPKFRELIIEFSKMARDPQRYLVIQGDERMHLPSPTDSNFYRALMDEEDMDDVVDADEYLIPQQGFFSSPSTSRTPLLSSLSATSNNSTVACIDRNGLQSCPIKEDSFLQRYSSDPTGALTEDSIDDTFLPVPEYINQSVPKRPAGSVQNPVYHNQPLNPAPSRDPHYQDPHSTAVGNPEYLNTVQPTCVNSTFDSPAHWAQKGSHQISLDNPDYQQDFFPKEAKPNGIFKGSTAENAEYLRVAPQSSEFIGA
Sequence of BTK (Q06187 whole entry): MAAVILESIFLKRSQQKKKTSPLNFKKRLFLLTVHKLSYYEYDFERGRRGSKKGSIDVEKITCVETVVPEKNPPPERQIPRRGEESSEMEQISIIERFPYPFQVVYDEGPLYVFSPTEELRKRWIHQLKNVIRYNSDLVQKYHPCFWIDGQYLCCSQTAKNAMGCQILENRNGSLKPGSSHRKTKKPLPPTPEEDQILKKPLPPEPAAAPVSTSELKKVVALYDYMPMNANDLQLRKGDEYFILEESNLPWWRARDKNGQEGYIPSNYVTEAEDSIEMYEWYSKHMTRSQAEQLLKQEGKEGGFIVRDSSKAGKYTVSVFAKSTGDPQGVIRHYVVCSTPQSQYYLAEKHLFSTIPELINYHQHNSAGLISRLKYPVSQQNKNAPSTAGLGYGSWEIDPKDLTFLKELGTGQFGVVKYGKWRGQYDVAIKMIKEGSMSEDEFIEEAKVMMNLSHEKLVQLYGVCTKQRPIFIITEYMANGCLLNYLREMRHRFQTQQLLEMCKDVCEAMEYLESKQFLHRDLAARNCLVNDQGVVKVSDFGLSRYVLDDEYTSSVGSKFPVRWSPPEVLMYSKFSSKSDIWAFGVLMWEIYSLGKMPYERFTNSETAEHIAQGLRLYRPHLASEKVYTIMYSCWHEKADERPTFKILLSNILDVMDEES

Regarding `C=CC(=O)Nc1cccc(Nc2cc(Nc3cccc(Br)c3)ncn2)c1` [I-1, N-{3-[6-(3-bromophenylamino)-pyrimidin-4-ylamino]-phenyl}-2-propenamide], the IC50 in experiment [1] was 10 to 100 nM; in experiment [2] it was no more than 10 nM.
The term inhibition denotes the relative decrease from the control value, in per cent. Low values mean little suppression, high ones strong suppression. As for `C=CC(=O)Nc1cccc(Nc2cc(Nc3ccc(Oc4ccccc4)cc3)ncn2)c1` [I-13, N-{3-[6-(4-phenoxyphenylamino)-pyrimidin-4-ylamino]phenyl}-2 propenamide], the inhibition at 1 µM in experiment [3] (Ramos, at 1 μM, 1 hour) came out at 85%. Also, the IC50 in experiment [3] was 10 to 100 nM; in experiment [4], 1000 to 10000 nM; in experiment [1], no more than 10 nM; in experiment [2], 10 to 100 nM. Besides, the “inhibition of BTK after washout over time” value in experiment [5] (Ramos cells, 100 nM, 0, 4, 6 and 8 hour time points) was “maintains inhibition of BTK for 8 hours”. Also, the “BTK Inhibition Type” value in experiment [5] is given as “irreversible”.
On to `C=CC(=O)Nc1cccc(Nc2cc(Nc3ccc(Oc4ccccc4)cc3)ncn2)n1` [I-63], for which the IC50 in experiment [3] was no more than 10 nM; in experiment [4], 1000 to 10000 nM; in experiment [1], no more than 10 nM; in experiment [2] it was no more than 10 nM. Moreover, the “BTK Inhibition Type” value in experiment [5] is “irreversible”.
As to `CN(C)C/C=C/C(=O)Nc1cccc(Nc2cc(Nc3ccc(Oc4ccccc4)cc3)ncn2)n1` [I-64, (E)-4-(dimethylamino)-N-(6-(6-(4-phenoxyphenylamino)pyrimidin-4-ylamino)pyridine-2-yl)but-2-enamide], the IC50 is 10 to 100 nM in experiment [3], 10 to 100 nM in experiment [4] and no more than 10 nM in experiment [1]. Besides, the “BTK Inhibition Type” value in experiment [5] is on record as “irreversible”.
As for `C=CC(=O)Nc1cccc(Nc2cc(Oc3cccc(C)c3)ncn2)n1` [I-65], the IC50 in experiment [4] was 10 to 100 nM; in experiment [1], no more than 10 nM; in experiment [2], 10 to 100 nM. Moreover, the “BTK Inhibition Type” value in experiment [5] was “reversible”.
For `C=CC(=O)Nc1cccc(Nc2cc(Oc3ccc(Oc4ccccc4)cc3)ncn2)n1` [I-66], the IC50 in experiment [4] was 1000 to 10000 nM; in experiment [1] it was no more than 10 nM; in experiment [2], 100 to 1000 nM. Also, the “BTK Inhibition Type” value in experiment [5] is given as “irreversible”.
For the compound `C=CC(=O)N(C)c1cccc(Nc2cc(Nc3ccc(Oc4ccccc4)cc3)ncn2)n1` [I-78, N-methyl-N-(6-(6-(4-phenoxyphenylamino)pyrimidin-4-ylamino)pyridin-2-yl)acrylamide], the IC50 is no more than 10 nM in experiment [3], 10 to 100 nM in experiment [4] and no more than 10 nM in experiment [1].
Turning to `CN(C)C/C=C/C(=O)N(C)c1cccc(Nc2cc(Nc3ccc(Oc4ccccc4)cc3)ncn2)n1` [I-79, (E)-4-(dimethylamino)-N-methyl-N-(6-(6-(4-phenoxyphenylamino)pyrimidin-4-ylamino)pyridine-2-yl)but-2-enamide], the IC50 in experiment [3], in experiment [4] and in experiment [1] was no more than 10 nM each time.
On to `Cc1cccc(Oc2cc(Nc3cccc(NC(=O)/C=C/CN(C)C)n3)ncn2)c1` [I-81], for which the results for the IC50 in experiment [3], in experiment [4] and in experiment [1] were no more than 10 nM, 10 to 100 nM and no more than 10 nM, respectively.
On to `C=CC(=O)Nc1cccc(Nc2cc(Nc3ccccc3)ncn2)n1` [I-94], for which the figures for the IC50 in experiment [4], in experiment [1] and in experiment [2] were 10 to 100 nM, no more than 10 nM and no more than 10 nM, respectively.
